# Assay results published in article PMC7466261, “In Silico and In Vitro Analysis of Multifunctionality of Animal Food-Derived Peptides” (Foods, 2020).
# Read-outs that look alike come from different tables or passages of the source. Where a SMILES comes first, the peptide text is derived from it. Where no end group is shown, it is not given here.
# How the values were obtained:
# [1] = biological target: T1, angiotensin-converting enzyme (ACE) (Oryctolagus cuniculus, UniProt P12822); test: ACE-inhibitory activity, fluorescence assay with Abz-Gly-Phe(NO2)-Pro; format: biochemical
# T1 sequence (P12822 34-1310): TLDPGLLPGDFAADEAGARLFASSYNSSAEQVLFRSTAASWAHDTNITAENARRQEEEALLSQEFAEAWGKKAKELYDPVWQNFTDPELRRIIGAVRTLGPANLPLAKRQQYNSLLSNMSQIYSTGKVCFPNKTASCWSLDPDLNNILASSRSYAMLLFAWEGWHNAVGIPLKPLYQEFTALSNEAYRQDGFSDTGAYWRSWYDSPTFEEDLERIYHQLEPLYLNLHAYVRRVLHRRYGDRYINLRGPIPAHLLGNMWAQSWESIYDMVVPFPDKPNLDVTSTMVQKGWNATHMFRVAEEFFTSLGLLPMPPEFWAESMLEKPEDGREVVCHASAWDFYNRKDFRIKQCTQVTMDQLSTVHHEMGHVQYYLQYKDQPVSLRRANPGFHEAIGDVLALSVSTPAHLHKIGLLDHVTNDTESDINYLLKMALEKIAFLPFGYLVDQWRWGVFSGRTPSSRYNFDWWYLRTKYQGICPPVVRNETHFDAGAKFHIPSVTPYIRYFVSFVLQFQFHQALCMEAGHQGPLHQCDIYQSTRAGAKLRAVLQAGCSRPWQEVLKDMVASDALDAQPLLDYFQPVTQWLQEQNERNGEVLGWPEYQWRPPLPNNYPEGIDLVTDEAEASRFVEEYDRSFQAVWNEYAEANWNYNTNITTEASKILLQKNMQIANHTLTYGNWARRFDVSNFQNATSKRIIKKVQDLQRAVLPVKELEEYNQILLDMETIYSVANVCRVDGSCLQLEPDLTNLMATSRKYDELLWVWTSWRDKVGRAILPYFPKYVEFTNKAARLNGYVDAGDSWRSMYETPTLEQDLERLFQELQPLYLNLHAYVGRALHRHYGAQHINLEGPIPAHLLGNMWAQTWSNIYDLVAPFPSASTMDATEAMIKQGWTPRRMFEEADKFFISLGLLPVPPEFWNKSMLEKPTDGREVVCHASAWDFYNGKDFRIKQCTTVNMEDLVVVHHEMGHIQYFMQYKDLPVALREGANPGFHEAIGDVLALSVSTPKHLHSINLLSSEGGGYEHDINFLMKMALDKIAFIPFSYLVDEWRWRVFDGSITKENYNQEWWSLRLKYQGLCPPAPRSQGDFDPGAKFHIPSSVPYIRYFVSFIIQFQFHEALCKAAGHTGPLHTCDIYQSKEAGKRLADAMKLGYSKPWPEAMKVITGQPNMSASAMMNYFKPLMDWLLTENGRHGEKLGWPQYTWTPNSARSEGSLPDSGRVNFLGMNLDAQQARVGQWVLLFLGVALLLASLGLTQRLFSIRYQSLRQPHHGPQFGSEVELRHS
# Protocol: ACE (1 U/mL) was diluted (0.04 U/mL) in 150 mM Tris buffer containing 0.1 μM ZnCl2 (pH 8.3). Forty microliters of sample (or MilliQ water for blank and control) were added to a black multi-well plate (Porvair, Leatherhead, UK). Then, 40 μL of ACE were added, and the reaction started after the addition of 160 μL of the substrate. The plate was incubated at 37 °C for 30 min, and the fluorescence was measured in a FLUOstar OPTIMA plate reader (BMG Labtechnologies GmbH, Offenburg, Germany) with 320 nm excitation and 420 nm emission filters.
# [2] = MBPDB; cited from earlier work
# ABTS assay (TEAC) = conditions: mean ± SD
# Protocol: Antioxidant activity was measured using a previously optimized method with some modifications. A mixture of 7 mM ABTS stock solution and 2.45 mM potassium persulfate was kept in the dark at room temperature for 12-16 h to form the ABTS radical cation (ABTS^•+). The ABTS^•+ solution was diluted in 5 mM of phosphate buffer solution (PBS) (pH 7.4) to an absorbance of 0.70 ± 0.02 at 734 nm at 30 °C. Two mL of diluted ABTS^•+ solution were mixed with 20 μL of sample or Trolox (0–0.015 μmol), and the absorbance was recorded at 734 nm after 10 min incubation at 30 °C. The Trolox equivalent antioxidant capacity (TEAC) value was expressed as μmol TE per μmol peptide. Each sample was analyzed in triplicate.
# [3] = Oxygen radical absorbance capacity (ORAC)-FL assay; parameters: key to Antioxidant Activity ORAC, symbol: **: Antioxidant activity not detected at the highest peptide concentration analyzed (0.20 µmol); conditions: for Antioxidant Activity ORAC: mean ± SD
# Protocol: An oxygen radical absorbance capacity (ORAC)-FL assay was used based on the protocol previously optimized. The reaction was performed at 37 °C in 75 mM phosphate buffer (pH 7.4). The final assay mixture volume was 200 µL, containing 70 nM FL, 12 mM AAPH, and antioxidant [(Trolox, 1–8 µM) or sample (at different concentrations)]. Fluorescence was measured during 137 min in a FLUOstar OPTIMA plate reader (BMG Labtech) with 485 nm excitation and 520 nm emission filters. The equipment was controlled by the FLUOstar Control ver. 1.32 R2 software for fluorescence measurement. Samples were analyzed in triplicate. The final ORAC-FL value was expressed as μmol Trolox equivalents (TE) per μmol peptide.
# [4] = biological target: T1, angiotensin-converting enzyme (ACE); conditions: read-out: ACE inhibitory IC50, cited from earlier work
# [5] = biological target: opioid, (3H)-naloxone binding; conditions: database value; read-out: Opioid agonist IC50, inhibition of (3H)-naloxone binding; cited from earlier work
# Caco-2 cells [6] = test: Cell viability (MTT), direct effects, Caco-2; format: cell-based, human; conditions: Caco-2, 1–100 µM, 24 h
# Protocol: (§1) Cell viability was determined using the MTT assay. […] Samples were analyzed in triplicate.
# RAW264.7 cells = test: Cell viability (MTT), direct effects, RAW264.7; format: cell-based, mouse; conditions: RAW264.7, 1–100 µM, 24 h
# Protocol: as §1
# Caco-2 cells [7] = test: Intracellular ROS (DCFH), t-BOOH-stressed Caco-2; format: cell-based, human; conditions: stressed Caco-2 (1 mM t-BOOH)
# Protocol: The intracellular ROS levels were detected using the ROS-sensitive fluorescent dye, DCFH, as previously described. Caco-2 cells were plated in 48-well plates (density of 4.75 × 10^4 cells/well) and RAW264.7 cells in 24-well plates (density of 2.0 × 10^5 cells/well) and incubated for 7 days and 14 h, respectively. After this time, cells were treated with peptides as previously described for 24 h. Then, DCFH was dissolved in HBSS and added to cells at a final concentration of 5 µM solution. Cells were incubated for 30 min at 37 °C. The probe was removed, and cells were incubated with PBS (direct effects) or t-BOOH (protective effects) for 60 min, measuring the fluorescence after 60 min in a FLUOstar OPTIMA plate reader (BMG Labtech) with 485 nm excitation and 520 nm emission filters. The results were expressed as percentage of the control, which was considered as 100%. The assay was run in triplicate.
# [8] = mean ± SD, read-out: ACE Inhibitory Activity (IC50-µM)
# [9] = highest peptide concentration analyzed 1000 µM, read-out: ACE Inhibitory Activity (IC50-µM), symbol
molecule,measurement,setting,value
CC(C)C[C@H](N)C(=O)NCC(=O)N[C@@H](Cc1ccc(O)cc1)C(=O)O [LGY] (H-Leu-Gly-Tyr-OH; N-terminus and C-terminus assumed),IC50,[1]; [8],26.1 ± 0.83 µM
same,ORAC,[2],ORAC = 2.31 µmol TE/µmol peptide **
same,Antioxidant Activity TEAC,ABTS assay (TEAC),1.54 ± 0.01 µmol TE/µmol peptide
same,Antioxidant Activity ORAC,[3],2.00 ± 0.09 µmol TE/µmol peptide
same,IC50,[4]; database value,21.5 µM
CC(C)C[C@H](NC(=O)[C@@H](N)CC(C)C)C(=O)N[C@@H](Cc1ccccc1)C(=O)O [LLF] (H-Leu-Leu-Phe-OH; N-terminus and C-terminus assumed),IC50,[1]; [8],94.8 ± 2.97 µM
same,"Antioxidant Activity ORAC, symbol",[3]; highest peptide concentration analyzed 0.20 µmol,**
same,IC50,[4]; BIOPEP-UWM,79.8 µM
CC(C)C[C@H](NC(=O)[C@H](Cc1ccc(O)cc1)NC(=O)[C@@H](N)CCCNC(=N)N)C(=O)NCC(=O)O [RYLG] (H-RYLG-OH; N-terminus and C-terminus assumed),IC50,[1]; [9],> 1000 µM
same,ORAC,[2],ORAC = 1.67 µmol TE/µmol peptide **
same,Antioxidant Activity TEAC,ABTS assay (TEAC),2.91 ± 0.21 µmol TE/µmol peptide
same,Antioxidant Activity ORAC,[3],1.70 ± 0.11 µmol TE/µmol peptide
same,IC50,[4]; database value,225 µM
CC(C)C[C@H](NC(=O)[C@H](Cc1ccc(O)cc1)NC(=O)[C@@H](N)CCCNC(=N)N)C(=O)O [RYL] (H-Arg-Tyr-Leu-OH; N-terminus and C-terminus assumed),IC50,[1]; [9],> 1000 µM
same,ORAC,[2],ORAC = 1.75 µmol TE/µmol peptide **
same,Antioxidant Activity TEAC,ABTS assay (TEAC),1.90 ± 0.03 µmol TE/µmol peptide
same,Antioxidant Activity ORAC,[3],1.72 ± 0.14 µmol TE/µmol peptide
same,IC50,[4]; BIOPEP-UWM,3.31 µM
same,IC50,[4]; database value,107 µM
CC(C)C[C@H](NC(=O)[C@H](Cc1ccccc1)NC(=O)CNC(=O)[C@@H](N)Cc1ccc(O)cc1)C(=O)O [YGFL],IC50,[1]; [8],292.5 ± 0.83 µM
same,Antioxidant Activity TEAC,ABTS assay (TEAC),2.12 ± 0.03 µmol TE/µmol peptide
same,Antioxidant Activity ORAC,[3],1.42 ± 0.04 µmol TE/µmol peptide
CC(C)C[C@H](NC(=O)CNC(=O)[C@@H](N)Cc1ccc(O)cc1)C(=O)N[C@@H](Cc1ccccc1)C(=O)O [YGLF] (H-YGLF-OH; N-terminus and C-terminus assumed),IC50,[1]; [9],> 1000 µM
same,Antioxidant Activity TEAC,ABTS assay (TEAC),2.08 ± 0.06 µmol TE/µmol peptide
same,Antioxidant Activity ORAC,[3],0.89 ± 0.01 µmol TE/µmol peptide
same,IC50,[4]; BIOPEP-UWM,733 µM
same,IC50,[5],300 µM
CC(C)C[C@H](NC(=O)[C@@H](N)Cc1ccc(O)cc1)C(=O)NCC(=O)N[C@@H](Cc1ccc(O)cc1)C(=O)O [YLGY] (H-YLGY-OH; N-terminus and C-terminus assumed),IC50,[1]; [8],9.87 ± 0.31 µM
same,ORAC,[2],ORAC = 1.46 µmol TE/µmol peptide **
same,Antioxidant Activity TEAC,ABTS assay (TEAC),2.14 ± 0.11 µmol TE/µmol peptide
same,Antioxidant Activity ORAC,[3],2.96 ± 0.20 µmol TE/µmol peptide
same,IC50,[4]; database value,41.9 µM
CC(C)C[C@H](NC(=O)[C@@H](N)Cc1ccc(O)cc1)C(=O)NCC(=O)O [YLG] (H-Tyr-Leu-Gly-OH; N-terminus and C-terminus assumed),IC50,[1]; [9],> 1000 µM
same,ORAC,[2],ORAC = 1.38 µmol TE/µmol peptide **
same,Antioxidant Activity TEAC,ABTS assay (TEAC),1.40 ± 0.04 µmol TE/µmol peptide
same,Antioxidant Activity ORAC,[3],0.93 ± 0.08 µmol TE/µmol peptide
N[C@@H](Cc1ccc(O)cc1)C(=O)N1CCC[C@H]1C(=O)N[C@@H](Cc1c[nH]c2ccccc12)C(=O)O [YPW] (H-Tyr-Pro-Trp-OH; N-terminus and C-terminus assumed),IC50,[1]; [9],> 1000 µM
AYFYPE [AYFYPE],IC50,[1]; [8],774 ± 38.2 µM
same,IC50,[4]; BIOPEP-UWM and MBPDB,106 µM
same,IC50,[4]; database value,261 µM
FYPEL [FYPEL],IC50,[1]; [8],62 ± 6.27 µM
same,IC50,[4]; database value,80.6 µM
HLPLP [reference compound],IC50,[4]; literature value,41 µM
IPP [reference compound],IC50,[4]; literature value,5 µM
RYLGY [RYLGY],IC50,[1]; [8],3.08 ± 0.11 µM
RYLGYLE [RYLGYLE],IC50,[1]; [9],> 1000 µM
same,"Cell viability, direct effect",Caco-2 cells [6],did not evoke changes in cell viability
same,"Cell viability, direct effect",RAW264.7 cells,did not evoke changes in cell viability
VPP [reference compound],IC50,[4]; literature value,9 µM
YFYPEL [YFYPEL],IC50,[1]; [8],8.82 ± 0.58 µM
same,"Cell viability, direct effect",Caco-2 cells [6],did not evoke changes in cell viability
same,ROS levels (% control),Caco-2 cells [7]; 1 µM peptide,168.88 ± 17.80%
same,"Cell viability, direct effect",RAW264.7 cells,did not evoke changes in cell viability
YGFLP [YGFLP],IC50,[1]; [8],272.39 ± 0.25 µM
same,IC50,[4]; literature value,260 µM
YLGYLE [YLGYLE],IC50,[1]; [8],85.8 ± 4.66 µM
same,"Cell viability, direct effect",Caco-2 cells [6],did not evoke changes in cell viability
same,ROS levels (% control),Caco-2 cells [7]; 1 µM peptide,175.06 ± 11.13%
same,ROS levels (% control),Caco-2 cells [7]; 10 µM peptide,174.44 ± 11.60%
same,"Cell viability, direct effect",RAW264.7 cells,did not evoke changes in cell viability
YPFPGPI [YPFPGPI],IC50,[1]; [8],686 ± 103 µM
same,IC50,[4]; MBPDB,500 µM
YPFPGPIP,IC50,[1]; [8],224 ± 43.9 µM
YPFVE [YPFVE],IC50,[1]; [9],> 1000 µM
YPFVEP [YPFVEP],IC50,[1]; [8],7.48 ± 0.03 µM
YPVEPF [YPVEPF],IC50,[1]; [9],> 1000 µM
